Reference: ChEMBL document CHEMBL4028801, “A multifactorial approach to hepatobiliary transporter assessment enables improved therapeutic compound development” (Toxicol Sci, 2013)

Key:
[1] = biological target: T1, ATP-binding cassette sub-family C member 4 (Homo sapiens, UniProt O15439); test: Inhibition of human MRP4 overexpressed in Sf9 cell membrane vesicles assessed as uptake of [3H]-estradiol-17beta-D-glucuronide in presence of ATP and GSH measured after 20 mins by membrane vesicle transport assay; assay type: ADME, cell-based
T1 sequence (O15439 whole entry): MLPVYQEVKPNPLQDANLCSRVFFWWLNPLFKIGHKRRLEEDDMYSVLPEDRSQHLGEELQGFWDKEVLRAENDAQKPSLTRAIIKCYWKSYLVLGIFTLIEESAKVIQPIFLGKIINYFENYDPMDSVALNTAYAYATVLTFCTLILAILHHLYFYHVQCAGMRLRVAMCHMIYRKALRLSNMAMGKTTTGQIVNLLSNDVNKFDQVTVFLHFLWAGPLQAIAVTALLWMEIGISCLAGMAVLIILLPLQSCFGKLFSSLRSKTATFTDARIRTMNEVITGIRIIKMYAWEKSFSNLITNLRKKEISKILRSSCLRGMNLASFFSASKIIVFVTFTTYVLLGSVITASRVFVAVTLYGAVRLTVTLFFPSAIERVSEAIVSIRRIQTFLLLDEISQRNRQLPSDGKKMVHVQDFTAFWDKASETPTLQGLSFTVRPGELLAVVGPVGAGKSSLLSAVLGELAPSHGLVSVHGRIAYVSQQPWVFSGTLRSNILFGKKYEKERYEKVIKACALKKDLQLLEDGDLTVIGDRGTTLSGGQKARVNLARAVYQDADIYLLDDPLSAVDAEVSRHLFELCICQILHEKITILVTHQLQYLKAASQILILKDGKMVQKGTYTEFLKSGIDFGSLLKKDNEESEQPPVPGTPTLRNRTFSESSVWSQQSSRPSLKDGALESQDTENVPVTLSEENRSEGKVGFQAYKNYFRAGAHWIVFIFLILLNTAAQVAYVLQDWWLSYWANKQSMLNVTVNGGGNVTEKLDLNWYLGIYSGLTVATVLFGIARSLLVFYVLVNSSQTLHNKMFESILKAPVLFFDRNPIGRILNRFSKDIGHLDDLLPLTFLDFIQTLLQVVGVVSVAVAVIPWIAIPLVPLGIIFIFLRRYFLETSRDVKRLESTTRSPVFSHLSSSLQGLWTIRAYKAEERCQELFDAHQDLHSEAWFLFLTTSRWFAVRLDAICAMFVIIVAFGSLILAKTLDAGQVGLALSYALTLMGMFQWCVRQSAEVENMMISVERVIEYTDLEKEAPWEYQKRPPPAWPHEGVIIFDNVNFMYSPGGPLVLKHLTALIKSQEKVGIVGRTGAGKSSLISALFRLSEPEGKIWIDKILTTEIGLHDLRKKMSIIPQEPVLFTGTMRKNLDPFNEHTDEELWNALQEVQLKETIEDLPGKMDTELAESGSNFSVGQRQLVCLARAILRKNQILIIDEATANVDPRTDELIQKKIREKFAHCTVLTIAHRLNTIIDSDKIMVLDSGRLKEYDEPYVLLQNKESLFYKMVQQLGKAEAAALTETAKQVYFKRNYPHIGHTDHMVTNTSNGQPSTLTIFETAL

[2] = biological target: ATP-binding cassette sub-family C member 2 (Homo sapiens, UniProt Q92887); test: Inhibition of human MRP2 overexpressed in Sf9 cell membrane vesicles assessed as uptake of [3H]-estradiol-17beta-D-glucuronide in presence of ATP and GSH measured after 20 mins by membrane vesicle transport assay
[3] = AUC in human at 30 to 60 mg, po QD after 24 hrs; assay type: ADME, organism-based; conditions: in vivo
[4] = biological target: ATP-binding cassette sub-family C member 3 (Homo sapiens, UniProt O15438); test: Inhibition of human MRP3 overexpressed in Sf9 insect cell membrane vesicles assessed as uptake of [3H]-estradiol-17beta-D-glucuronide in presence of ATP and GSH measured after 10 mins by membrane vesicle transport assay; assay type: ADME, cell-based
[5] = Ratio of drug concentration at steady state in human at 300 to 900 mg, po QD after 24 hrs to IC50 for human BSEP overexpressed in Sf9 insect cells; assay type: ADME, organism-based; conditions: in vivo
[6] = Drug concentration at steady state in human at 300 to 900 mg, po QD after 24 hrs; assay type: ADME, organism-based; conditions: in vivo, read-out: Css
[7] = AUC in human at 300 to 900 mg, po QD after 24 hrs; assay type: ADME, organism-based; conditions: in vivo
[8] = Ratio of drug concentration at steady state in human at 300 to 900 mg, po QD after 24 hrs to IC50 for human MRP2 overexpressed in Sf9 insect cells; assay type: ADME, organism-based; conditions: in vivo
[9] = Ratio of drug concentration at steady state in human at 300 to 900 mg, po QD after 24 hrs to IC50 for human MRP4 overexpressed in Sf9 insect cells; assay type: ADME, organism-based; conditions: in vivo
[10] = biological target: Bile salt export pump (Homo sapiens, UniProt O95342); test: Inhibition of human BSEP overexpressed in Sf9 cell membrane vesicles assessed as uptake of [3H]-taurocholate in presence of ATP measured after 15 to 20 mins by membrane vesicle transport assay; assay type: ADME, cell-based
[11] = Drug concentration at steady state in patient with advanced phase CML and Ph+ ALL at 100 mg, po BID after 12 hrs; assay type: ADME, organism-based; conditions: human, in vivo, read-out: Css
[12] = AUC in patient with advanced phase CML and Ph+ ALL at 100 mg, po BID after 12 hrs; assay type: ADME, organism-based; parameters: dose 100 mg, time < 12 hr, route oral; conditions: human, in vivo
[13] = Drug concentration at steady state in patient with chronic phase CML at 70 to 90 mg, po BID after 12 hrs; assay type: ADME, organism-based; conditions: human, in vivo, read-out: Css
[14] = Ratio of drug concentration at steady state patient with chronic phase CML at 70 to 90 mg, po BID after 12 hrs to IC50 for human MRP4 overexpressed in Sf9 insect cells; assay type: ADME, organism-based; conditions: in vivo
[15] = Ratio of drug concentration at steady state in patient with advanced phase CML and Ph+ ALL at 100 mg, po BID after 12 hrs to IC50 for human MRP4 overexpressed in Sf9 insect cells; assay type: ADME, organism-based; conditions: in vivo
[16] = Ratio of drug concentration at steady state in patient with chronic phase CML at 70 to 90 mg, po BID after 12 hrs to IC50 for human BSEP overexpressed in Sf9 insect cells; assay type: ADME, organism-based; conditions: in vivo
[17] = AUC in patient with chronic phase CML at 70 to 90 mg, po BID after 12 hrs; assay type: ADME, organism-based; conditions: human, in vivo
[18] = Ratio of drug concentration at steady state in patient with advanced phase CML and Ph+ ALL at 100 mg, po BID after 12 hrs to IC50 for human BSEP overexpressed in Sf9 insect cells; assay type: ADME, organism-based; conditions: in vivo
[19] = Drug concentration at steady state in human at 60 to 120 mg, po QD after 24 hrs; assay type: ADME, organism-based; conditions: in vivo, read-out: Css
[20] = AUC in human at 60 to 120 mg, po QD after 24 hrs; assay type: ADME, organism-based; conditions: in vivo
[21] = Ratio of drug concentration at steady state in human at 60 to 120 mg, po QD after 24 hrs to IC50 for human MRP4 overexpressed in Sf9 insect cells; assay type: ADME, organism-based; conditions: in vivo
[22] = Ratio of drug concentration at steady state in human at 60 to 120 mg, po QD after 24 hrs to IC50 for human BSEP overexpressed in Sf9 insect cells; assay type: ADME, organism-based; conditions: in vivo
[23] = AUC in human at 1 to 16 mg or 4 to 8 mg, po QD extended-release tablets after 24 hrs; assay type: ADME, organism-based; conditions: in vivo
[24] = Ratio of drug concentration at steady state in human at 1 to 16 mg or 4 to 8 mg, po QD extended-release tablets after 24 hrs to IC50 for human MRP4 overexpressed in Sf9 insect cells; assay type: ADME, organism-based; conditions: in vivo
[25] = system: Homo sapiens; test: Drug concentration at steady state in human at 1 to 16 mg or 4 to 8 mg, po QD extended-release tablets after 24 hrs; assay type: ADME, organism-based; conditions: in vivo
[26] = Ratio of drug concentration at steady state in human at 1 to 16 mg or 4 to 8 mg, po QD extended-release tablets after 24 hrs to IC50 for human BSEP overexpressed in Sf9 insect cells; assay type: ADME, organism-based; conditions: in vivo

ATP-binding cassette sub-family C member 3, sequence (O15438 whole entry): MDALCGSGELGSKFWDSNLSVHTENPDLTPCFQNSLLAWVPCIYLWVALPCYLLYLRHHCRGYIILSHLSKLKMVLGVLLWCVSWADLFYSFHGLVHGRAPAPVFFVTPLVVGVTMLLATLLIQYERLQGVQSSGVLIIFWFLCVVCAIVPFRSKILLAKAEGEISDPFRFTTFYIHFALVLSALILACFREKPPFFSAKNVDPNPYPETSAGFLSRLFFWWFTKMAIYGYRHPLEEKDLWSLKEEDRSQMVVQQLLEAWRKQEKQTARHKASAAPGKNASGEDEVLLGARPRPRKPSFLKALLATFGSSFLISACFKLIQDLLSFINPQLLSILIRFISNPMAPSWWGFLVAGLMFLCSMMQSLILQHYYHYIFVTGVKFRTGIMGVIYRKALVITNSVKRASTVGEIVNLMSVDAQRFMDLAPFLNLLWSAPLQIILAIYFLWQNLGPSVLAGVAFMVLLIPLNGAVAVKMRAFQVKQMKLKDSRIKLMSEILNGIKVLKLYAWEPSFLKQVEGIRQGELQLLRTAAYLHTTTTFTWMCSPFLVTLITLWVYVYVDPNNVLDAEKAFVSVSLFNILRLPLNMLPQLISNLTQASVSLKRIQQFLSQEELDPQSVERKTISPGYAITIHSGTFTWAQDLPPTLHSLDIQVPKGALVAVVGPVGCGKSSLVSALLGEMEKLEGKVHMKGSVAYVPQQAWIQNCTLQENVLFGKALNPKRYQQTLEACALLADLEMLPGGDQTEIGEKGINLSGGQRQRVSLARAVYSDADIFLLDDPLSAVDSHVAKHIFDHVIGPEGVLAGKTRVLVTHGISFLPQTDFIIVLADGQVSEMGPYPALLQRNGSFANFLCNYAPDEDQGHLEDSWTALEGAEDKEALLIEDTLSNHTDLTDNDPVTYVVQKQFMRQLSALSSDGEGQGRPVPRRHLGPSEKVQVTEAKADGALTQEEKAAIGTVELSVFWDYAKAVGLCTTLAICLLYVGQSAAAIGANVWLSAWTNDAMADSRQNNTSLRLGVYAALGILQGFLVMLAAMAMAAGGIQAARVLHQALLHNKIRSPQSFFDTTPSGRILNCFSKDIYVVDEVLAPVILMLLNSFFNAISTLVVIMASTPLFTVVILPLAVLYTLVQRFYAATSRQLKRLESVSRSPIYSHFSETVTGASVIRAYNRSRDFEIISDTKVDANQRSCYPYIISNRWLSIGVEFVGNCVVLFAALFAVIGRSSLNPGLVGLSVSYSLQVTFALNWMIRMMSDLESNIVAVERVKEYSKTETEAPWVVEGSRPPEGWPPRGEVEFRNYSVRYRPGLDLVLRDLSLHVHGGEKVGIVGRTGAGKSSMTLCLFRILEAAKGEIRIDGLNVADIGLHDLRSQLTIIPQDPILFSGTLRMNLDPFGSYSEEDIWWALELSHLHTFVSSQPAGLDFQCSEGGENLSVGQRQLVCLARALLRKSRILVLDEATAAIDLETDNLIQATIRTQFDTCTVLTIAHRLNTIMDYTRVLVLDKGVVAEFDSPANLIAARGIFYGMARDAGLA
ATP-binding cassette sub-family C member 2, sequence (Q92887 whole entry): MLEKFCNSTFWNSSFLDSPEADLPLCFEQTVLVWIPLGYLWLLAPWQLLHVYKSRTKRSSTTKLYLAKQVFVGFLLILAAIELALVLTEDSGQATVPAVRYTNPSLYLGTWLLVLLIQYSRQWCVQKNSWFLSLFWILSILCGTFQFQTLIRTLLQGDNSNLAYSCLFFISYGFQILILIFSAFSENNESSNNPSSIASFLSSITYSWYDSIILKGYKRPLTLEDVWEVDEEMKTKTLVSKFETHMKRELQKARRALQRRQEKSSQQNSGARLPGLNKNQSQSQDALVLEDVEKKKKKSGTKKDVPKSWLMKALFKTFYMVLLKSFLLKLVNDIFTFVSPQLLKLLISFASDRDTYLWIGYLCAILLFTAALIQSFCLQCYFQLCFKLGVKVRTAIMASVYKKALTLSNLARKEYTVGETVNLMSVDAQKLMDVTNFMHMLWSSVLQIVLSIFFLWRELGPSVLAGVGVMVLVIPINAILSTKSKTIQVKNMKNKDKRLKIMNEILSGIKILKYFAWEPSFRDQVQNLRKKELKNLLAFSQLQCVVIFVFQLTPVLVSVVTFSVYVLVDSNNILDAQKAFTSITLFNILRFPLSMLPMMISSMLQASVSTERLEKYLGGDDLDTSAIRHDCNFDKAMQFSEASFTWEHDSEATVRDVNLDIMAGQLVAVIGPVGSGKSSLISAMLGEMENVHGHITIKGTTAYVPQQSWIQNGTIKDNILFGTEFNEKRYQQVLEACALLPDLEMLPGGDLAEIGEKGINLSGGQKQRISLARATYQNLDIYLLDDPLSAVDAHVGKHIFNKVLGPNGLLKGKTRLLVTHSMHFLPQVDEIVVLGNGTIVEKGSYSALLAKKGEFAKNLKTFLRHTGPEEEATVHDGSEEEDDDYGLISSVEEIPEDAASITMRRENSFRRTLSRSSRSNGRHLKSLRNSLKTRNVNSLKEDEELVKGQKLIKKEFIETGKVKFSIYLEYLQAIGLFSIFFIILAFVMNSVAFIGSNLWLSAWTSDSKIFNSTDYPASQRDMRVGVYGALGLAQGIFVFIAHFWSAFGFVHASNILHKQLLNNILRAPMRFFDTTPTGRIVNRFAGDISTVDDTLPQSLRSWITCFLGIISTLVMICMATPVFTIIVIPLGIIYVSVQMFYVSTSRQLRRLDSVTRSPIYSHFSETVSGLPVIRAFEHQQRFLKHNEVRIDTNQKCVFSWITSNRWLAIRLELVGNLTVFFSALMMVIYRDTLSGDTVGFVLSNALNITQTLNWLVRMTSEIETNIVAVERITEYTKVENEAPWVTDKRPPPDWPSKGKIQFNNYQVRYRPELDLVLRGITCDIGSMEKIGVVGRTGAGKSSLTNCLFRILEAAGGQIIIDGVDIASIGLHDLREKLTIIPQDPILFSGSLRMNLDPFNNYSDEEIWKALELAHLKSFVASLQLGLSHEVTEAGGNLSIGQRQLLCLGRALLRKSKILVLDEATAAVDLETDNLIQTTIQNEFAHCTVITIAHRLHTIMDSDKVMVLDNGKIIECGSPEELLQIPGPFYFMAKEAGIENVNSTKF
Bile salt export pump, sequence (O95342 whole entry): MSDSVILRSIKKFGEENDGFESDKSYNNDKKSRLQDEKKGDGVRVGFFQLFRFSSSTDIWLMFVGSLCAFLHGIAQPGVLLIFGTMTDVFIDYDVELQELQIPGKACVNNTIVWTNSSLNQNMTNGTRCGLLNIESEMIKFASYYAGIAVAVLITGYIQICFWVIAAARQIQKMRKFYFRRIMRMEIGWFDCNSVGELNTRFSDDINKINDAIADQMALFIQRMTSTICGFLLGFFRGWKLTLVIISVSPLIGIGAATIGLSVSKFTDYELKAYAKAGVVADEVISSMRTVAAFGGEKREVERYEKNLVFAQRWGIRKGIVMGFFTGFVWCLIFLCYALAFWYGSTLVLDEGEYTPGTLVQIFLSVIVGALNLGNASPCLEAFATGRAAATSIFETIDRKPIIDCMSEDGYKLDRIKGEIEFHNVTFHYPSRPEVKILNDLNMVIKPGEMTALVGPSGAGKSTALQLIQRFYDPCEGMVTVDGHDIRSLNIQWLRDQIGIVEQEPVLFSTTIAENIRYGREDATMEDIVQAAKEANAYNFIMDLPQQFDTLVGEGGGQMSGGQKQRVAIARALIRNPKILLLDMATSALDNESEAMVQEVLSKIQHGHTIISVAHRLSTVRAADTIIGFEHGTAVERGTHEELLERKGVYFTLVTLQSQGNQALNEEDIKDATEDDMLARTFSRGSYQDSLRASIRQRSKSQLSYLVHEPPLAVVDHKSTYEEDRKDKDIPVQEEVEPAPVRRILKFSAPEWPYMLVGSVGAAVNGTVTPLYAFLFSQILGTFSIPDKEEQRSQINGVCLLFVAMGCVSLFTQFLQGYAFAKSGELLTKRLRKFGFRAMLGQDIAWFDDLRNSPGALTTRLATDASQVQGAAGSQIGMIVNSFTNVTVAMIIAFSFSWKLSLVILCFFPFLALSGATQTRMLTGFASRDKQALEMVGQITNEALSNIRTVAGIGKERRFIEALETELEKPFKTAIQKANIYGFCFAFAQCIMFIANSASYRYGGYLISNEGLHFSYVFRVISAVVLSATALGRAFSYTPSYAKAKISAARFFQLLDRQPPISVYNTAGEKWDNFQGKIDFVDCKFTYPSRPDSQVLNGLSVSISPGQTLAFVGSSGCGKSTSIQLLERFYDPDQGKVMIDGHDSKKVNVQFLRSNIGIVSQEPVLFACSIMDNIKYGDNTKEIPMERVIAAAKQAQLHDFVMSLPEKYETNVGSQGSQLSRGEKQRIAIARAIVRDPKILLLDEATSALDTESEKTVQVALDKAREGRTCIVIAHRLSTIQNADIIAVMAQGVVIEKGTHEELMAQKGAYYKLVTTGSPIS

For `COC(=O)C1=C(C)NC(C)=C(C(=O)OC)C1c1ccccc1[N+](=O)[O-]` [NIFEDIPINE], the IC50 [1] was 16.6 µM, the IC50 [2] was > 133 µM and the AUC at 24 h [3] was 3.48 µM·h. The IC50 [4] was > 133 µM.

`CO[C@H]1/C=C/O[C@@]2(C)Oc3c(C)c(O)c4c(c3C2=O)C2=NC3(CCN(CC(C)C)CC3)NC2=C(NC(=O)/C(C)=C\C=C\[C@H](C)[C@H](O)[C@@H](C)[C@@H](O)[C@@H](C)[C@H](OC(C)=O)[C@@H]1C)C4=O` [RIFABUTIN] gave a Ratio [5] of 0.004, a concentration at 24 h [6] of 101 nM and an AUC at 24 h [7] of 2.43 µM·h. The IC50 [1] was 15.9 µM, the IC50 [2] was 49.8 µM and the IC50 [4] was > 133 µM. For the same compound, the Ratio [8] was 0.002 and the Ratio [9] was 0.006.

`Cc1nc(Nc2ncc(C(=O)Nc3c(C)cccc3Cl)s2)cc(N2CCN(CCO)CC2)n1.O` [DASATINIB] gave an IC50 [10] of 13.1 µM, a concentration at 12 h [11] of 52 nM and an AUC at 12 h [12] of 0.624 µM·h. The concentration at 12 h [13] was 52 nM, the Ratio [14] was 0.002 and the Ratio [15] was 0.002. The IC50 [1] was 27.3 µM, the Ratio [16] was 0.004 and the IC50 [2] was > 133 µM. For the same compound, the AUC at 12 h [17] was 0.624 µM·h, the IC50 [4] was > 133 µM and the Ratio [18] was 0.004.

For `COC(=O)C1=C(C)NC(C)=C(C(=O)OCCN(C)Cc2ccccc2)C1c1cccc([N+](=O)[O-])c1` (centres undefined) [NICARDIPINE], the concentration at 24 h [19] was 30 nM, the AUC at 24 h [20] was 0.72 µM·h and the IC50 [1] was 88 µM. The Ratio [21] was 0, the IC50 [2] was > 133 µM and the IC50 [4] was > 133 µM. For the same compound, the Ratio [22] was 0.004.

`COc1cc2nc(N3CCN(C(=O)C4COc5ccccc5O4)CC3)nc(N)c2cc1OC.CS(=O)(=O)O` (centres undefined) [DOXAZOSIN MESYLATE] gave an IC50 [10] of 45 µM, an AUC at 24 h [23] of 1.64 µM·h and a Ratio [24] of 0.009. For the same compound, the IC50 [1] was 8 µM, the IC50 [2] was > 133 µM and the Css [25] was 68 nM. The IC50 [4] was > 133 µM and the Ratio [26] was 0.002.
